Reference: ChEMBL document CHEMBL3826915, “Design and comparative anticonvulsant activity assessment of CNS-active alkyl-carbamoyl imidazole derivatives” (Bioorg Med Chem, 2016)
The source made the active and inactive calls. The rule behind the calls is not given here.

Experiments:
Rattus norvegicus [1] = assay: Anticonvulsant activity in albino Sprague-Dawley rat assessed as protection against maximal electroshock-induced seizures at 30 mg/kg, po after 0.5 hrs; format: functional, organism-based
Rattus norvegicus [2] = assay: Neurotoxicity in albino Sprague-Dawley rat assessed as behavioral impairment at 30 mg/kg, ip after 0.25 hrs by rotorod test; format: toxicity, organism-based; settings: in vivo
Mus musculus [3] = assay: Neurotoxicity in albino CF1 mouse assessed as behavioral impairment at 300 mg/kg, ip after 0.5 hrs by rotorod test; format: toxicity, organism-based; settings: in vivo
Rattus norvegicus [4] = assay: Anticonvulsant activity in albino Sprague-Dawley rat assessed as protection against maximal electroshock-induced seizures at 30 mg/kg, ip after 2 hrs; format: functional, organism-based
Mus musculus [5] = assay: Neurotoxicity in albino CF1 mouse assessed as behavioral impairment at 300 mg/kg, ip after 2 hrs by rotorod test; format: toxicity, organism-based; settings: in vivo
Mus musculus [6] = assay: Anticonvulsant activity in albino CF1 mouse assessed as protection against 32 mA current-induced seizure at 30 mg/kg, ip after 0.5 hrs by 6 Hz psychomotor test; format: functional, organism-based
Rattus norvegicus [7] = assay: Neurotoxicity in albino Sprague-Dawley rat assessed as behavioral impairment at 30 mg/kg, ip after 2 hrs by rotorod test; format: toxicity, organism-based; settings: in vivo
Rattus norvegicus [8] = assay: Neurotoxicity in albino Sprague-Dawley rat assessed as behavioral impairment at 30 mg/kg, po after 0.25 hrs by rotorod test; format: toxicity, organism-based; settings: in vivo
Rattus norvegicus [9] = assay: Neurotoxicity in albino Sprague-Dawley rat assessed as behavioral impairment at 30 mg/kg, po after 2 hrs by rotorod test; format: toxicity, organism-based; settings: in vivo
Rattus norvegicus [10] = assay: Neurotoxicity in albino Sprague-Dawley rat assessed as behavioral impairment at 30 mg/kg, ip after 0.5 hrs by rotorod test; format: toxicity, organism-based; settings: in vivo
Rattus norvegicus [11] = assay: Anticonvulsant activity in albino Sprague-Dawley rat assessed as protection against maximal electroshock-induced seizures at 30 mg/kg, po after 2 hrs; format: functional, organism-based
Rattus norvegicus [12] = assay: Anticonvulsant activity in albino Sprague-Dawley rat assessed as protection against maximal electroshock-induced seizures at 30 mg/kg, po after 0.25 hrs; format: functional, organism-based
Rattus norvegicus [13] = assay: Anticonvulsant activity in albino Sprague-Dawley rat assessed as protection against maximal electroshock-induced seizures at 30 mg/kg, po after 1 hr; format: functional, organism-based
Rattus norvegicus [14] = assay: Neurotoxicity in albino Sprague-Dawley rat assessed as behavioral impairment at 30 mg/kg, po after 1 hr by rotorod test; format: toxicity, organism-based; settings: in vivo
Mus musculus [15] = assay: Neurotoxicity in albino CF1 mouse assessed as behavioral impairment at 100 mg/kg, ip after 2 hrs by rotorod test; format: toxicity, organism-based; settings: in vivo
Mus musculus [16] = assay: Neurotoxicity in albino CF1 mouse assessed as behavioral impairment at 30 mg/kg, ip after 2 hrs by rotorod test; format: toxicity, organism-based; settings: in vivo
Mus musculus [17] = assay: Anticonvulsant activity in albino CF1 mouse assessed as protection against 32 mA current-induced seizure at 30 mg/kg, ip after 2 hrs by 6 Hz psychomotor test; format: functional, organism-based
Rattus norvegicus [18] = assay: Neurotoxicity in albino Sprague-Dawley rat assessed as behavioral impairment at 30 mg/kg, ip after 1 hr by rotorod test; format: toxicity, organism-based; settings: in vivo
Mus musculus [19] = assay: Anticonvulsant activity in albino CF1 mouse assessed as protection against maximal electroshock-induced seizures at 100 mg/kg, ip after 0.5 hrs; format: functional, organism-based
Mus musculus [20] = assay: Anticonvulsant activity in albino CF1 mouse assessed as protection against maximal electroshock-induced seizures at 30 mg/kg, ip after 2 hrs; format: functional, organism-based
Rattus norvegicus [21] = assay: Neurotoxicity in albino Sprague-Dawley rat assessed as behavioral impairment at 30 mg/kg, po after 0.5 hrs by rotorod test; format: toxicity, organism-based; settings: in vivo
Mus musculus [22] = assay: Neurotoxicity in albino CF1 mouse assessed as behavioral impairment at 30 mg/kg, ip after 0.5 hrs by rotorod test; format: toxicity, organism-based; settings: in vivo
Mus musculus [23] = assay: Anticonvulsant activity in albino CF1 mouse assessed as protection against maximal electroshock-induced seizures at 100 mg/kg, ip after 2 hrs; format: functional, organism-based
Mus musculus [24] = assay: Anticonvulsant activity in albino CF1 mouse assessed as protection against 32 mA current-induced seizure at 100 mg/kg, ip after 0.5 hrs by 6 Hz psychomotor test; format: functional, organism-based
Mus musculus [25] = assay: Anticonvulsant activity in ip dosed albino CF1 mouse assessed as protection against subcutaneous metrazol-induced seizures by measuring time to peak effect; format: functional
Mus musculus [26] = assay: Anticonvulsant activity in albino CF1 mouse assessed as protection against maximal electroshock-induced seizures at 300 mg/kg, ip after 0.5 hrs; format: functional, organism-based
Mus musculus [27] = assay: Anticonvulsant activity in ip dosed albino CF1 mouse assessed as protection against maximal electroshock-induced seizures by measuring time to peak effect; format: functional
Mus musculus [28] = assay: Anticonvulsant activity in ip dosed albino CF1 mouse assessed as protection against maximal electroshock-induced seizures; format: functional
Rattus norvegicus [29] = assay: Anticonvulsant activity in albino Sprague-Dawley rat assessed as protection against maximal electroshock-induced seizures at 30 mg/kg, ip after 0.25 hrs; format: functional, organism-based
[30] = Protective index, ratio of TD50 for neurotoxicity in ip dosed albino CF1 mouse to ED50 for anticonvulsant activity in ip dosed […] metrazol-induced seizure albino CF1 mouse model; format: toxicity, organism-based; settings: in vivo, read-out: Ratio TD50/ED50
Mus musculus [31] = assay: Anticonvulsant activity in ip dosed albino CF1 mouse assessed as protection against subcutaneous metrazol-induced seizures; format: functional
[32] = Neurotoxicity in ip dosed albino CF1 mouse assessed as motor impairment by rotorod test; format: toxicity, organism-based; settings: in vivo
Rattus norvegicus [33] = assay: Anticonvulsant activity in albino Sprague-Dawley rat assessed as protection against maximal electroshock-induced seizures at 30 mg/kg, ip after 0.5 hrs; format: functional, organism-based
Mus musculus [34] = assay: Anticonvulsant activity in albino CF1 mouse assessed as protection against maximal electroshock-induced seizures at 30 mg/kg, ip after 0.5 hrs; format: functional, organism-based
Mus musculus [35] = assay: Anticonvulsant activity in albino CF1 mouse assessed as protection against maximal electroshock-induced seizures at 300 mg/kg, ip after 2 hrs; format: functional, organism-based
Mus musculus [36] = assay: Anticonvulsant activity in ip dosed albino CF1 mouse assessed as protection against 6 Hz current-induced seizures by psychomotor test; format: functional
[37] = Protective index, ratio of TD50 for neurotoxicity in ip dosed albino CF1 mouse to ED50 for anticonvulsant activity in ip dosed maximal electroshock-induced seizure albino CF1 mouse model; format: toxicity, organism-based; settings: in vivo, read-out: Ratio TD50/ED50
Mus musculus [38] = assay: Anticonvulsant activity in ip dosed albino CF1 mouse assessed as protection against 6 Hz current-induced seizure by measuring time to peak effect; format: functional
Mus musculus [39] = assay: Anticonvulsant activity in albino CF1 mouse assessed as protection against 32 mA current-induced seizure at 100 mg/kg, ip after 2 hrs by 6 Hz psychomotor test; format: functional, organism-based
Mus musculus [40] = assay: Anticonvulsant activity in albino CF1 mouse assessed as protection against 32 mA current-induced seizure at 300 mg/kg, ip after 2 hrs by 6 Hz psychomotor test; format: functional, organism-based
Mus musculus [41] = assay: Anticonvulsant activity in albino CF1 mouse assessed as protection against 32 mA current-induced seizure at 300 mg/kg, ip after 0.5 hrs by 6 Hz psychomotor test; format: functional, organism-based
Rattus norvegicus [42] = assay: Anticonvulsant activity in albino Sprague-Dawley rat assessed as protection against maximal electroshock-induced seizures at 30 mg/kg, ip after 1 hr; format: functional, organism-based

SMILES	Activity (Rattus norvegicus [1])	Activity (Rattus norvegicus [2])	Activity (Mus musculus [3])	Activity (Mus musculus [6])	Activity (Rattus norvegicus [7])	Activity (Rattus norvegicus [8])	Activity (Rattus norvegicus [9])	Activity (Rattus norvegicus [10])	Activity (Rattus norvegicus [11])	Activity (Rattus norvegicus [14])	Activity (Mus musculus [15])	Activity (Mus musculus [16])	Activity (Mus musculus [17])	Activity (Rattus norvegicus [18])	Activity (Mus musculus [19])	Activity (Mus musculus [20])	Activity (Rattus norvegicus [21])	Activity (Mus musculus [22])	Activity (Mus musculus [23])	Activity (Mus musculus [34])	also measured
CC(C)(C)CCOC(=O)NCCCn1ccnc1	inactive	Non-toxic	Toxic	inactive	Non-toxic	Non-toxic	Non-toxic	Non-toxic	inactive	Non-toxic	Non-toxic	Non-toxic	inactive	Non-toxic	Active	inactive	Non-toxic	Non-toxic	Active	–	Activity (Rattus norvegicus [4]): inactive; Activity (Mus musculus [5]): Toxic; Activity (Rattus norvegicus [12]): inactive; Activity (Rattus norvegicus [13]): inactive
O=C(NCCCn1ccnc1)OCCc1ccccc1	–	Non-toxic	Toxic	inactive	Non-toxic	Non-toxic	Non-toxic	Non-toxic	inactive	Non-toxic	Non-toxic	Non-toxic	inactive	Non-toxic	Active	inactive	Non-toxic	Non-toxic	Active	Active	Activity (Mus musculus [5]): Toxic; Activity (Mus musculus [24]): Active; Time (Mus musculus [25]): 0.5 h; Activity (Mus musculus [26]): Active; Time (Mus musculus [27]): 0.5 h; ED50 (Mus musculus [28]): 14 mg/kg; Activity (Rattus norvegicus [29]): Active; selectivity ratio [30]: 0.96; ED50 (Mus musculus [31]): > 80 mg/kg; TD50 [32]: 77 mg/kg; Activity (Rattus norvegicus [33]): Active; Activity (Mus musculus [35]): Active; ED50 (Mus musculus [36]): inactive; selectivity ratio [37]: 5.5; Time (Mus musculus [38]): 0.5 h
NC(=O)OCC(COC(N)=O)c1ccccc1 [FELBAMATE]	–	–	–	–	–	–	–	–	–	–	–	–	–	–	–	–	–	–	–	–	Time (Mus musculus [25]): 0.5 h; Time (Mus musculus [27]): 0.5 h; ED50 (Mus musculus [28]): 25 mg/kg; ED50 (Mus musculus [31]): > 250 mg/kg; TD50 [32]: > 500 mg/kg; selectivity ratio [37]: > 20; Time (Mus musculus [38]): 0.5 h
CC(C)(C)COC(=O)NCCCn1ccnc1	inactive	Non-toxic	–	inactive	Non-toxic	Non-toxic	Non-toxic	Non-toxic	inactive	Non-toxic	Non-toxic	Non-toxic	inactive	Non-toxic	–	inactive	Non-toxic	Non-toxic	Active	inactive	Activity (Mus musculus [39]): inactive; Activity (Mus musculus [24]): inactive; Activity (Mus musculus [26]): inactive; Activity (Mus musculus [40]): inactive; Activity (Rattus norvegicus [13]): inactive; Activity (Mus musculus [41]): inactive; Activity (Mus musculus [35]): Active
CCCC(CCC)C(=O)O [VALPROIC ACID]	–	–	–	–	–	–	–	–	–	–	–	–	–	–	–	–	–	–	–	–	Time (Mus musculus [25]): 0.5 h; Time (Mus musculus [27]): 0.5 h; ED50 (Mus musculus [31]): 646 mg/kg; TD50 [32]: 784 mg/kg; Time (Mus musculus [38]): 0.5 h
CCC(C)C(C)OC(=O)NCCCn1ccnc1 (stereo not given)	inactive	Non-toxic	Toxic	inactive	Non-toxic	Non-toxic	Non-toxic	Non-toxic	inactive	Non-toxic	Non-toxic	Non-toxic	inactive	Non-toxic	Active	inactive	Non-toxic	Non-toxic	Active	inactive	Activity (Rattus norvegicus [42]): inactive; Activity (Rattus norvegicus [4]): inactive; Activity (Mus musculus [39]): inactive; Activity (Mus musculus [26]): Active; Activity (Rattus norvegicus [12]): inactive
CCCCC(CC)COC(=O)NCCCn1ccnc1 (stereo not given)	–	–	Toxic	inactive	–	–	–	–	–	–	Non-toxic	Non-toxic	inactive	–	Active	inactive	–	Non-toxic	–	inactive	Activity (Mus musculus [5]): Toxic; Activity (Mus musculus [39]): inactive
